Experimental findings from ChEMBL document CHEMBL3352569, “Design, synthesis and structure-activity relationship studies of novel sirtuin 2 (SIRT2) inhibitors with a benzamide skeleton” (Bioorg Med Chem, 2015) are described below.

The structures appear in SMILES notation.

Experiment [1] addresses T1, NAD-dependent protein deacetylase sirtuin-2 (Homo sapiens) (UniProt Q8IXJ6).
T1 sequence (whole entry): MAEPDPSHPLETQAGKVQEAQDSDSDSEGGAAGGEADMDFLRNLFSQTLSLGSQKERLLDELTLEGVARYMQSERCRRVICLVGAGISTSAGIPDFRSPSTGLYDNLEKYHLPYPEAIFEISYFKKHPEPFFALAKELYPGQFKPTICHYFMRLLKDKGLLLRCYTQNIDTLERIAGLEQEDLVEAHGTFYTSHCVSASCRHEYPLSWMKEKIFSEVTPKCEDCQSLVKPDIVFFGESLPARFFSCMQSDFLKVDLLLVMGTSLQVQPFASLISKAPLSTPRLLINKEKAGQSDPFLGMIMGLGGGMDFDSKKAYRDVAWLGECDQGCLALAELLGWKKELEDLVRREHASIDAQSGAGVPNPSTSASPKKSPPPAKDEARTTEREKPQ
Briefly: Inhibition of GST-tagged human recombinant SIRT2 (34 to 356 residues) expressed in Escherichia coli BL21 at 10 uM using Fluor de Lys-SIRT as substrate incubated for 60 mins prior to substrate addition measured after 45 mins by fluorimetric analysis.

Experiment [2] deals with T1, NAD-dependent protein deacetylase sirtuin-2 (Homo sapiens). Briefly: Inhibition of GST-tagged human recombinant SIRT2 (34 to 356 residues) expressed in Escherichia coli BL21 at 50 uM using Fluor de Lys-SIRT as substrate incubated for 60 mins prior to substrate addition measured after 45 mins by fluorimetric analysis.
The target of experiment [3] is T2, NAD-dependent protein deacetylase sirtuin-2 (Homo sapiens, UniProt Q8IXJ6).
T2 sequence (Q8IXJ6 whole entry): T1 sequence (whole entry)
Kind of experiment: Inhibition of GST-tagged human recombinant SIRT2 (34 to 356 residues) expressed in Escherichia coli BL21 using Fluor de Lys-SIRT as substrate incubated for 60 mins prior to substrate addition measured after 45 mins by fluorimetric analysis.

In experiment [4] the target is T1, NAD-dependent protein deacetylase sirtuin-2 (Homo sapiens). Particulars: 25 uM.
Description: Inhibition of human recombinant SIRT2 at 25 uM
The target of experiment [5] is T3, NAD-dependent protein deacetylase sirtuin-1 (Homo sapiens, UniProt Q96EB6).
T3 sequence (Q96EB6 whole entry): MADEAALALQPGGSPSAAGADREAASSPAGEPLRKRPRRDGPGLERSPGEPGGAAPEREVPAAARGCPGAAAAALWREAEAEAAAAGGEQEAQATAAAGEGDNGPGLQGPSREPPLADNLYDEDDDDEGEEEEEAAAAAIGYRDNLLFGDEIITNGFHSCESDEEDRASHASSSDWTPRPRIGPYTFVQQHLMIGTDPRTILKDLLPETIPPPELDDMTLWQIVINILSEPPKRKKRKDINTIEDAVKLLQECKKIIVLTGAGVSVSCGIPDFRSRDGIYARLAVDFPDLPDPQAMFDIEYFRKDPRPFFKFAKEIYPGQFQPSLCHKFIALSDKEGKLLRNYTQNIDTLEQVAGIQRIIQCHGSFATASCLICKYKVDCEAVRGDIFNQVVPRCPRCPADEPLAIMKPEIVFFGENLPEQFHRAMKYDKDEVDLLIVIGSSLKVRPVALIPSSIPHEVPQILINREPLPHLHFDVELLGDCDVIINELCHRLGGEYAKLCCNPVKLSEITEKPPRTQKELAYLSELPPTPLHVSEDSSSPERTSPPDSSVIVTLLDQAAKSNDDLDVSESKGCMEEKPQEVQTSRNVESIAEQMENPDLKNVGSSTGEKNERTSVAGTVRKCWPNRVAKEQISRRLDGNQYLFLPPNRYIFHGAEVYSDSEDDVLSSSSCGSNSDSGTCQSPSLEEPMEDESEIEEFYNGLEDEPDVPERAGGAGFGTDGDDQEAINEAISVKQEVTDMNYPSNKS
Kind of experiment: Inhibition of human recombinant SIRT1 using Fluor de Lys-SIRT as substrate incubated for 60 mins prior to substrate addition measured after 45 mins by fluorimetric analysis.

The target in experiment [6] is T4, NAD-dependent protein deacetylase sirtuin-3, mitochondrial (Homo sapiens, UniProt Q9NTG7).
T4 sequence (Q9NTG7 whole entry): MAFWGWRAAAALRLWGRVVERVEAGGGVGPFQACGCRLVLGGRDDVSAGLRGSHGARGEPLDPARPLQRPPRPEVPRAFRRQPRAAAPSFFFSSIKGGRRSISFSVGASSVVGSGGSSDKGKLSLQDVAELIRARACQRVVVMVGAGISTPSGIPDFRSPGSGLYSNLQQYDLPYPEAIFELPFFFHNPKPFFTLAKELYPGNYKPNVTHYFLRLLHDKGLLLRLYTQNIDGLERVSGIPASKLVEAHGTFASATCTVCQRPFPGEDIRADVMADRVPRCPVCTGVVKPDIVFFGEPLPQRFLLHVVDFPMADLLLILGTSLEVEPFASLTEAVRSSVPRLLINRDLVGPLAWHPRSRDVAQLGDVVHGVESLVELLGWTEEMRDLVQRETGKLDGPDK
Kind of experiment: Inhibition of human recombinant SIRT3 using Fluor de Lys-SIRT as substrate incubated for 60 mins prior to substrate addition measured after 45 mins by fluorimetric analysis.

In experiment [7] the target is T3, NAD-dependent protein deacetylase sirtuin-1. Briefly: Inhibition of human SIRT1.
Experiment [8] deals with T4, NAD-dependent protein deacetylase sirtuin-3, mitochondrial. Briefly: Inhibition of human SIRT3.

As a reminder, the inhibition is the drop in the measured response relative to a control, in per cent. As a reminder, the IC50 is the concentration that gives 50% inhibition.

As to `O=C(Nc1cccc(-c2ccc3ccccc3c2)c1)c1cccc(Br)c1`, the inhibition in experiment [1] amounted to 19%; in experiment [2], 43%.

As for `O=C(Nc1cccc(NC(=O)c2cc(C(F)(F)F)cc(C(F)(F)F)c2)c1)c1cccc(Br)c1`, the inhibition in experiment [1] amounted to 3%; in experiment [2] it was 12%.

With `O=C(Nc1cccc(NC(=O)c2ccccc2)c1)c1ccccc1`, the values for the inhibition in experiment [1] and in experiment [2] were 3% and 10%, respectively.

For `COc1ccc(C(=O)Nc2cccc(NC(=O)c3ccccc3Br)c2)cc1`, the inhibition in experiment [1] came out at 10%; in experiment [2], 31%.

Regarding `O=C(Nc1nc[nH]n1)c1cccc(-c2ccc3ccccc3c2)c1`, the IC50 in experiment [3] stood at 57 µM.

In experiment [4], `CC(C(=O)Nc1cccc(/N=C/c2c(O)ccc3ccccc23)c1)c1ccccc1` (centres undefined) registered an inhibition of 80%.

Consider `O=C(Nc1cnccc1Br)c1cccc(-c2ccc3ccccc3c2)c1`, for which the IC50 in experiment [3] is 0.6 µM; in experiment [5], more than 100 µM; in experiment [6] it was more than 100 µM.

For the molecule `Cc1cccc(C(=O)Nc2cccc(NC(=O)c3ccccc3Br)c2)c1`, the inhibition in experiment [1] is 18%; in experiment [2], 24%.

Consider `COc1ccccc1C(=O)Nc1cccc(NC(=O)c2ccccc2Br)c1`, for which the inhibition in experiment [1] turned out to be 10%; in experiment [2], 28%.

For `COc1ccccc1C(=O)Nc1cccc(NC(=O)c2cccc(Br)c2)c1`, the inhibition in experiment [1] stood at 11%; in experiment [2], 39%.

In the case of `O=C(Nc1ncccn1)c1cccc(-c2ccc3ccccc3c2)c1`, the IC50 in experiment [3] turned out to be 13 µM.

For `N#C/C(=C\c1ccc(-c2cc(Cl)ccc2Cl)o1)C(=O)Nc1cccc2ncccc12`, the IC50 in experiment [7] is more than 50 µM.

`COc1cccc(C(=O)Nc2cccc(-c3ccc4ccccc4c3)c2)c1`: the inhibition in experiment [1] stood at 8%; in experiment [2], 44%.

Regarding `O=C(Nc1ccccn1)c1cccc(-c2ccc3ccccc3c2)c1`, in experiment [3], the IC50 was 22 µM.

As to `O=C(Nc1ccccc1)c1cccc(-c2ccc3ccccc3c2)c1`, the inhibition in experiment [1] came to 21%; in experiment [2] it was 14%.

As to `O=C(Nc1ccncc1)c1cccc(-c2ccc3ccccc3c2)c1`, in experiment [3], the IC50 came out at 16 µM.

`O=C(Nc1cnccn1)c1cccc(-c2ccc3ccccc3c2)c1`: the IC50 in experiment [3] was found to be 6.2 µM.

`O=C(Nc1cccc(NC(=O)c2ccccc2Br)c1)c1ccccc1Br`: the results for the inhibition in experiment [1] and in experiment [2] were 3% and 49%, respectively.

As to `O=C(Nc1cccnn1)c1cccc(-c2ccc3ccccc3c2)c1`, the IC50 in experiment [3] came to 0.9 µM.

Regarding `Cc1ccccc1C(=O)Nc1cccc(NC(=O)c2ccccc2Br)c1`, the inhibition was 1% in experiment [1] and 0% in experiment [2].

Turning to `O=C(Nc1cccnc1)c1cccc(-c2ccc3ccccc3c2)c1`, the IC50 in experiment [3] worked out at 3.3 µM.

Consider `O=C(Nc1cc[nH]n1)c1cccc(-c2ccc3ccccc3c2)c1`, for which the IC50 in experiment [3] is 42 µM.

Take `O=C(Nc1cccc(-c2ccc3ccccc3c2)c1)c1ccccc1Br`: the inhibition in experiment [1] is 39%; in experiment [2], 56%.

On to `COc1ccc(C(=O)Nc2cccc(NC(=O)c3cccc(Br)c3)c2)cc1`, for which the inhibition came to 4% in experiment [1] and 0% in experiment [2].

Turning to `O=C(Nc1cccc(Br)c1)c1cccc(S(=O)(=O)N2CCCCCC2)c1`, the IC50 in experiment [7] and in experiment [8] was more than 50 µM in each case.

Regarding `O=C(Nc1ccnnc1)c1cccc(-c2ccc3ccccc3c2)c1`, the IC50 in experiment [3] was found to be 6.3 µM.

Regarding `O=C(Nc1nccs1)c1cccc(-c2ccc3ccccc3c2)c1`, the IC50 in experiment [3] stood at 12 µM.

On to `Nc1ccccc1NC(=O)c1cccc(-c2ccc3ccccc3c2)c1`, for which the inhibition in experiment [1] was determined as 22%; in experiment [2] it was 29%.

Turning to `O=C(Nc1cccc(Br)c1)c1cccc(-c2ccc3ccccc3c2)c1`, the inhibition turned out to be 23% in experiment [1] and 46% in experiment [2].

As to `O=C(Nc1cccc(NC(=O)c2ccccc2Br)c1)c1ccccc1`, the inhibition is 8% in experiment [1] and 28% in experiment [2].

As to `COc1ccccc1C(=O)Nc1cccc(-c2ccc3ccccc3c2)c1`, the inhibition in experiment [1] worked out at 10%; in experiment [2] it was 47%.

On to `COc1cccc(NC(=O)c2cccc(-c3ccc4ccccc4c3)c2)c1`, for which the inhibition in experiment [1] is 29%; in experiment [2] it was 66%.

`O=C(Nc1ccccc1Br)c1cccc(-c2ccc3ccccc3c2)c1`: the inhibition in experiment [1] was 64%; in experiment [2], 95%. For the same molecule, the IC50 in experiment [3] is 5.3 µM.

For the molecule `O=C(Nc1cccc(NC(=O)c2cccc(Br)c2)c1)c1cccc(Br)c1`, the inhibition in experiment [1] turned out to be 7%; in experiment [2], 12%.

As to `O=C(Nc1cccc(NC(=O)c2ccccc2Br)c1)c1cccc(Br)c1`, the inhibition in experiment [1] came out at 0%; in experiment [2], 19%.

`COc1cccc(C(=O)Nc2cccc(NC(=O)c3ccccc3Br)c2)c1`: the inhibition in experiment [1] stood at 4%; in experiment [2] it was 19%.

`O=C(Nc1cccc(NC(=O)c2cccc(Br)c2)c1)c1cc(Cl)cc(Cl)c1`: the inhibition in experiment [1] was 0%; in experiment [2], 10%.

Take `O=C(Nc1ccccc1[N+](=O)[O-])c1cccc(-c2ccc3ccccc3c2)c1`: the inhibition in experiment [1] is 30%; in experiment [2] it was 76%.

For the molecule `COc1ccccc1NC(=O)c1cccc(-c2ccc3ccccc3c2)c1`, the inhibition in experiment [1] is 51%; in experiment [2], 89%. In experiment [3], the IC50 was 11 µM.
